Literature values in patent US7045166B2, “Sweetener compositions containing fractions of inulin” (priority 1998, dated 2006).

How the values were obtained:
[1] = relative to sucrose (sugar)
[2] = artificial sweetener, general statement

| heat stability [2] | Structure (SMILES) | sweetness of an equivalent dose of sucrose [1] |
| --- | --- | --- |
| – | COC(=O)[C@H](Cc1ccccc1)NC(=O)[C@H](CC(=O)O)NCCC(C)(C)C [Neotane] | 8000 times |
| heat stable | OC[C@H]1O[C@H](O[C@]2(CCl)O[C@H](CCl)[C@@H](O)[C@@H]2O)[C@H](O)[C@@H](O)[C@H]1Cl [Sucralose, sucralose] | 600 times |
